This passage reports viability, T/C and IC50 results from PubChem BioAssay AID1963849 (Molecular Pharmacology Branch, DTP, NCI, 2024).

The subject of the assay is 299254-011-R-J1-PDC complex spheroid viability. Briefly: Anticancer human tumor 299254-011-R-J1-PDC patient-derived melanoma cell line growth inhibition [POLQ]. As to conditions: for viability, T/C: stronger effect = lower value. The protocol:
Multicellular complex tumor spheroid response to Polymerase (POL) inhibitors (novobiocin, ART-558, RP6685) in combination with a variety of drugs and investigational agents in selected tumor cell lines
The POL inhibitors (novobiocin, ART-558, and RP6685) were evaluated both individually and in combination with standard of care and investigational anticancer small molecules within a complex spheroid model of solid tumors. . Complex spheroids include a stromal component modeled by human endothelial cells (HUVEC) and fibroblasts modeled by human mesenchymal stem cells (MSCs). The concentration ranges selected for each drug and investigational agent were based upon clinically achievable concentrations if the clinical Cmax of the agent was known.
Compounds. The drugs and investigational agents: novobiocin (NSC847541), ART-558 (NSC835418), RP-6685 (NSC848927), peposertib (NSC802822), ceralasertib (NSC780249), elimusertib (NSC800525), camonsertib (NSC841442), AZD-1390 (NSC803789), olaparib (NSC753686), talazoparib (NSC767125), rucaparib (NSC756644), sotorasib (NSC818433), MRTX-1133 (NSC836407), SN-38 (NSC673596), topotecan (NSC609699), epotoside (NSC141540), doxorubicin (NSC123127), gemcitabine (NSC613327), 5-fluorouracil (NSC19893), paclitaxel (NSC125973), vemurafenib (NSC761431), MSA-2 (NSC828583), SN-011 (NSC837082), adavosertib (NSC754352), prexasertib (NSC758257), carboplatin (NSC241240) and oxaliplatin (NSC266046), were obtained from the National Cancer Institute (NCI) Developmental Therapeutics Program Chemical Repository (21). The FDA-approved anticancer drug set is available from the Developmental Therapeutics Program at https://dtp.cancer.gov/organization/dscb/obtaining/. […] The stock solutions were prepared in dimethyl sulfoxide (DMSO, Sigma-Aldrich, St. Louis, MO, cat. D2650), except for the platinum compounds which were prepared in saline (Quality Biological, Gaithersburg, MD, cat. 114-055-101), at 800-fold the tested concentration and stored at -70 degrees C prior to their use. All drugs and investigational agents were tested over a range starting from a high concentration at or near the clinical Cmax and decreasing in half-log increments. If the clinical Cmax for an agent had not been determined, the highest concentration tested was 10 microM, except for SN-38, which was tested at a high concentration of 1 microM.
Cell Culture. All cells were maintained in an incubator at 37 degrees C and 5% CO2 with 95% humidity. The PDC lines were cultured according to standard operating procedures established by the NCI PDMR (https://pdmr.cancer.gov). Table 3 of the manuscript, lists the cell lines along with the number of the three cell types plated to form the mct-spheroids and media for tumor cell growth. After thawing, all PDC lines, except 997537-175-T-J1-PDC and 415267-285-R-J2-PDC, were cultured in Matrigel-coated flasks prepared with a working solution of 1X Ham's F-12 nutrient mix, without supplementation (Thermo Fisher Scientific, cat. 11765054), 100 U/mL penicillin-streptomycin (Thermo Fisher Scientific, cat. 15140122), and 2.5% Matrigel (Corning Inc., Corning, NY, cat. 354248) for the first three passages. The two PDC lines 997537-175-T-J1-PDC and 415267-285-R-J2-PDC were cultured on uncoated flasks. The 857933-349-R-J2-PDC line was cultured in 6C/Colon 1B media containing advanced DMEM/F-12 (Thermo Fisher Scientific, cat. 12634028), 10 mM HEPES (Thermo Fisher Scientific, cat. 15630080), 1X GlutaMAX supplement (Thermo Fisher Scientific, cat. 35050061), 0.1 mg/mL primocin (InvivoGen, San Diego, CA, cat. ant-pm-2), 10% defined fetal bovine serum, heat inactivated (HyClone Laboratories Inc., Logan, UT, cat. SH30070.03HI), 50% L-WRN conditioned media (ATCC, cat. CRL-3276), 1.25 mM N-Acetyl-L-cysteine (Sigma-Aldrich, cat. A9165), 10 mM nicotinamide (Sigma-Aldrich, cat. N0636), 1X B-27 supplement (Thermo Fisher Scientific, cat. 17504044), 1X N-2 supplement (Thermo Fisher Scientific, cat. […]

Molecules are shown by their SMILES. Several values for one entry are separate records, joined by “and”; a condition that tells them apart may be missing. Identical values can stand only once. A value given as a limit tells only on which side of the number the result lay.
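Also: spheroids exposed to drugs for one week before measurement.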
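For viability, T/C in this document: percent viability relative to DMSO vehicle control taken as 100%.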

In the case of `CC1COCCN1c1cc(-c2ccnn2C)c2ccnc(-c3ccn[nH]3)c2n1` (stereo not given), the viability, T/C (commonly the ratio of treated to control) runs as follows: (compound 0.0316 µM) 96.6% and 111% and 99%; (compound 0.1 µM) 67.8% and 70% and 78.4%; (compound 0.316 µM) 46.7% and 46.5% and 50.2%; (compound 1 µM) 30.8% and 31.4% and 31.7%; (compound 3.16 µM) 21.6% and 31.1% and 23.9%; (compound 10 µM) 18.8% and 20.6% and 22.7%. The IC50 (in general, the concentration at which inhibition is half-maximal) (curve of compound) was 0.255 µM and 0.265 µM and 0.32 µM.
As to `CC(=O)O[C@H]1C(=O)[C@@]2(C)[C@H]([C@H](OC(=O)c3ccccc3)[C@]3(O)C[C@H](OC(=O)[C@H](O)[C@@H](NC(=O)c4ccccc4)c4ccccc4)C(C)=C1C3(C)C)[C@]1(OC(C)=O)CO[C@@H]1C[C@@H]2O`, the viability, T/C was 84.8% and 82.2% and 94.2% (compound 0.00949 µM); 76.5% and 84.1% and 70.9% (compound 0.03 µM); 49.1% and 47.2% and 41.7% (compound 0.0949 µM); 31.8% and 42.1% and 26.9% (compound 0.3 µM); 22.3% and 28.3% and 21.8% (compound 0.949 µM); 28.1% and 22.8% and 15.4% (compound 3 µM). Besides, under “curve of compound”, the IC50 was 0.0932 µM and 0.125 µM and 0.0704 µM.
As to `COc1cccc2c1C(=O)c1c(O)c3c(c(O)c1C2=O)CC(O)(C(=O)CO)CC3OC1CC(N)C(O)C(C)O1` (stereo not given), the viability, T/C by setting is: (compound 0.0316 µM) 83.7% and 89.6% and 90%; (compound 0.1 µM) 80.1% and 91.1% and 93.3%; (compound 0.316 µM) 69.1% and 73.4% and 55.2%; (compound 1 µM) 59% and 60.7% and 46%; (compound 3.16 µM) 9.86% and 15.5% and 12%; (compound 10 µM) 0.74% and 1.67% and 3.35%. Also, the IC50 (curve of compound) is 1.19 µM and 1.2 µM and 0.612 µM.
With `CC(C)n1c(=O)n(C)c2cnc3cc(F)c(-c4ccc(OCCCN5CCCCC5)nc4)cc3c21`, the viability, T/C by setting is: (compound 0.0316 µM) 98.8% and 106% and 88.4%; (compound 0.1 µM) 96.7% and 99.9% and 85.7%; (compound 0.316 µM) 112% and 108% and 95.3%; (compound 1 µM) 101% and 95.5% and 94.9%; (compound 3.16 µM) 89.8% and 106% and 90.2%; (compound 10 µM) 73.4% and 78.9% and 88.5%. The IC50 (curve of compound) is greater than 10 µM.
As to `Cc1cccc(N(C)C(=O)C2C(O)CCN2c2nc(C)cc(C(F)(F)F)c2C#N)c1` (stereo not given), the viability, T/C is 102% [middle of 13 runs] (compound 0.0316 µM); 103% [middle of 13 runs] (compound 0.1 µM); 102% [middle of 13 runs] (compound 0.316 µM); 103% [middle of 13 runs] (compound 1 µM); 97.3% [middle of 13 runs] (compound 3.16 µM). The IC50 runs as follows: (compound alone, run of 11/27/2023) greater than 10 µM; (compound alone, run of 12/05/2023) greater than 10 µM.
On to `COc1cccc(OCCCN)c1-c1cc(Nc2cnc(C#N)cn2)n[nH]1`, for which the viability, T/C is 98.2% and 103% (2×) (compound 0.00316 µM); 92.8% and 112% and 96% (compound 0.01 µM); 60.5% and 75.7% and 77.2% (compound 0.0316 µM); 52.1% and 57.2% and 56.9% (compound 0.1 µM); 37.6% and 41.3% and 50.1% (compound 0.316 µM); 38.9% and 37.3% and 45.4% (compound 1 µM). Where the note is “curve of compound”, the IC50 was 0.0789 µM and 0.135 µM and 0.268 µM.
In the case of `C#Cc1c(F)ccc2cc(O)cc(-c3ncc4c(N5CC6CCC(C5)N6)nc(OCC56CCCN5CC(F)C6)nc4c3F)c12` (stereo not given), the viability, T/C (compound 0.0316 µM) was 90.8% and 94.2% and 98%; the viability, T/C (compound 0.1 µM) is 109% and 101% and 94.8%; the viability, T/C (compound 0.316 µM) is 113% and 107% and 110%; the viability, T/C (compound 1 µM) is 117% and 116% and 112%; the viability, T/C (compound 3.16 µM) is 102% and 117% and 93.7%; the viability, T/C (compound 10 µM) was 84.7% and 82.2% and 84.4%. Further, the IC50 (curve of compound) was greater than 10 µM.
Take `O=C(c1cc(Cc2n[nH]c(=O)c3ccccc23)ccc1F)N1CCN(C(=O)C2CC2)CC1`: the viability, T/C by setting is: (compound 0.0316 µM) 94.4% and 93.8% and 100%; (compound 0.1 µM) 101% and 83.9% and 107%; (compound 0.316 µM) 98.9% and 81.6% and 109%; (compound 1 µM) 97.1% and 85.2% and 89.6%; (compound 3.16 µM) 98.6% and 94.9% and 100%; (compound 10 µM) 88.7% and 80.5% and 96.8%. Where the note is “curve of compound”, the IC50 was greater than 10 µM.
In the case of `CCc1c2c(nc3ccc(O)cc13)-c1cc3c(c(=O)n1C2)COC(=O)[C@]3(O)CC`, the viability, T/C is 94.6% and 92.7% and 99.2% (compound 0.00316 µM); 89.3% and 93.2% and 77.9% (compound 0.01 µM); 75.9% and 72.8% and 82% (compound 0.0316 µM); 67.9% and 81.2% and 60.7% (compound 0.1 µM); 69.4% and 75.8% and 59.4% (compound 0.316 µM); 51.7% and 59.2% and 59.4% (compound 1 µM). The IC50 (curve of compound) was greater than 1 µM.
As to `CC1COCCN1c1cc(C2(O)CC3CCC(C2)O3)c2cnn(-c3ccn[nH]3)c2n1` (stereo not given), the viability, T/C (compound 0.0316 µM) is 84.1% and 85.2% and 80.8%; the viability, T/C (compound 0.1 µM) was 66.5% and 64.7% and 57.4%; the viability, T/C (compound 0.316 µM) was 34.4% and 36.9% and 39.6%; the viability, T/C (compound 1 µM) was 26.3% and 17.9% and 25.1%; the viability, T/C (compound 3.16 µM) was 14.4% and 15.1% and 20.3%; the viability, T/C (compound 10 µM) was 8.87% and 10.7% and 12.4%. For the same molecule, the IC50 (curve of compound) is 0.19 µM and 0.182 µM and 0.159 µM.
With `CCc1cc2c(N3CCc4c(cc(Cn5ccnc5)cc4-c4cn(C)nc4C(F)(F)F)C3=O)cc(C)nc2c(OC)n1`, the viability, T/C (compound 0.0316 µM) was 131% and 104% and 92.7%; the viability, T/C (compound 0.1 µM) was 90.2% and 96.5% and 106%; the viability, T/C (compound 0.316 µM) is 118% and 92.2% and 99.7%; the viability, T/C (compound 1 µM) is 99.2% and 94.1% and 99.4%; the viability, T/C (compound 3.16 µM) is 103% and 86.5% and 90.4%; the viability, T/C (compound 10 µM) is 59.6% and 62.7% and 67.7%. Also, where the note is “curve of compound”, the IC50 is greater than 10 µM.
With `C=CC(=O)N1CCN(c2nc(=O)n(-c3c(C)ccnc3C(C)C)c3nc(-c4c(O)cccc4F)c(F)cc23)C(C)C1` (stereo not given), the viability, T/C is 84.9% and 90.1% and 80.7% (compound 0.0316 µM); 71.5% and 77.5% and 66.9% (compound 0.1 µM); 85.2% and 74.5% and 70.9% (compound 0.316 µM); 72.8% and 66.9% and 60.2% (compound 1 µM); 63.5% and 85.5% and 63% (compound 3.16 µM); 66.1% and 77.9% and 62.6% (compound 10 µM). Moreover, the IC50 (curve of compound) is greater than 10 µM.
Regarding `CCCS(=O)(=O)Nc1ccc(F)c(C(=O)c2c[nH]c3ncc(-c4ccc(Cl)cc4)cc23)c1F`, the viability, T/C was 114% and 106% and 96.5% (compound 0.0316 µM); 99.7% and 109% and 112% (compound 0.1 µM); 118% and 95.7% and 123% (compound 0.316 µM); 102% and 122% and 117% (compound 1 µM); 109% and 107% and 120% (compound 3.16 µM); 50.6% and 47.5% and 69.2% (compound 10 µM). For the same molecule, the IC50 (curve of compound) is > 10 µM and 9.54 µM.
Regarding `CCc1cc2c(N3CCc4c(cc(Cn5ccnc5)cc4-c4cn(C)nc4C(F)(F)F)C3=O)ccnc2c(OC)n1`, the viability, T/C is 97% and 108% and 110% (compound 0.0316 µM); 105% and 116% and 102% (compound 0.1 µM); 96.3% and 113% and 109% (compound 0.316 µM); 93.1% and 100% and 93.5% (compound 1 µM); 98% and 90.8% and 98.3% (compound 3.16 µM); 84.2% and 82% and 82.5% (compound 10 µM). The 50% inhibitory concentration (IC50) (curve of compound) was greater than 10 µM.
`COc1ccc([C@@H](O)c2cc(-c3ncnc4cc(N5CCOCC5)ccc34)c(F)cc2Cl)nn1`: the viability, T/C reads like this: (compound 0.0316 µM) 106% and 102% and 92.9%; (compound 0.1 µM) 86.3% and 91.9% and 94.6%; (compound 0.316 µM) 106% and 96.2% and 105%; (compound 1 µM) 94% and 100% and 99%; (compound 3.16 µM) 92.6% and 84.1% and 88.5%; (compound 10 µM) 49.3% and 50% and 43.6%. Also, the IC50 (curve of compound) is 9.87 µM and > 10 µM and 8.57 µM.
